# Measurements as given in paper PMC12396409, “Screening and hit evaluation of a microbial metabolite library against the pathogenic Plasmodium falciparum and Toxoplasma gondii parasites” (International Journal for Parasitology: Drugs and Drug …, 2025).
# Like-named read-outs stand apart in the source and are kept apart here.
# Columns and labels:
# [1] = test system: P. falciparum 3D7 parasites; test: P. falciparum growth inhibition assay, 1-cycle (72 h treatment), SYBR DNA staining (library screen at 2 μg/mL and dose-response); type: cell-based, Plasmodium falciparum; conditions: for activity at 2 µg/mL: Plasmodium falciparum, 3D7
# [2] = test system: P. falciparum 3D7 parasites; test: P. falciparum growth inhibition assay, 2-cycle (120 h treatment), delayed-death screen and dose-response; type: cell-based, Plasmodium falciparum; conditions: for activity at 2 µg/mL: Plasmodium falciparum, 3D7
# [3] = test system: T. gondii RH strain (RH-Tub-eYFP) tachyzoites; test: microbe, parasite or virus in culture; type: cell-based, Toxoplasma gondii; conditions: 72 h; for percent parasite growth at 2 µg/mL: Toxoplasma gondii
# [4] = P. falciparum, 72 h, screen at 2 μg/mL, replicate 1
# [5] = P. falciparum, 72 h, screen at 2 μg/mL, replicate 2
# [6] = P. falciparum, 120 h, screen at 2 μg/mL, replicate 1
# [7] = P. falciparum, 120 h, screen at 2 μg/mL, replicate 2
# [8] = T. gondii, screen at 2 μg/mL, replicate 1
# [9] = T. gondii, screen at 2 μg/mL, replicate 2
structure (smiles),measurement,setting,value
COc1ccc(-c2coc3cc(O)cc(O)c3c2=O)cc1 [Biochanin A],Pf_72h_%Growth_Rep1,"[1]; library screen at 2 μg/mL, 72 h, % growth, replicate 1",105.15%
same,Pf_72h_%Growth_Rep2,"[1]; library screen at 2 μg/mL, 72 h, % growth, replicate 2",90.67%
same,Pf_120h_%Growth_Rep1,"[2]; library screen at 2 μg/mL, 120 h, % growth, replicate 1",158.83%
same,Pf_120h_%Growth_Rep2,"[2]; library screen at 2 μg/mL, 120 h, % growth, replicate 2",100.13%
same,Tg_72h_%Growth_Rep1,"[3]; library screen at 2 μg/mL, % growth, replicate 1",75.87%
same,Tg_72h_%Growth_Rep2,"[3]; library screen at 2 μg/mL, % growth, replicate 2",92.06%
Cc1ncc(-c2c[nH]c3ccccc23)o1 [BIA-P1070],Pf_72h_%Growth_Rep1,"[1]; P. falciparum 3D7, 72 h, parasite screen at 2 μg/mL, % growth, replicate 1",82.71%
same,Pf_72h_%Growth_Rep2,"[1]; P. falciparum 3D7, 72 h, parasite screen at 2 μg/mL, % growth, replicate 2",88.10%
same,Pf_120h_%Growth_Rep1,"[2]; P. falciparum 3D7, 120 h, parasite screen at 2 μg/mL, % growth, replicate 1",92.74%
same,Pf_120h_%Growth_Rep2,"[2]; P. falciparum 3D7, 120 h, parasite screen at 2 μg/mL, % growth, replicate 2",139.06%
same,Tg_72h_%Growth_Rep1,"[3]; T. gondii, parasite screen at 2 μg/mL, % growth, replicate 1",139.44%
same,Tg_72h_%Growth_Rep2,"[3]; T. gondii, parasite screen at 2 μg/mL, % growth, replicate 2",88.28%
CCC(=O)N[C@H](CO)[C@H](O)c1ccc([N+](=O)[O-])cc1 [Corynecin II],Pf_72h_%Growth_Rep1,[1]; [4],84.27%
same,Pf_72h_%Growth_Rep2,[1]; [5],79.27%
same,Pf_120h_%Growth_Rep1,[2]; [6],83.93%
same,Pf_120h_%Growth_Rep2,[2]; [7],86.26%
same,Tg_72h_%Growth_Rep1,[3]; [8],140.85%
same,Tg_72h_%Growth_Rep2,[3]; [9],90.01%
CCCCCCCCCC(=O)N[C@H]1CCOC1=O [Decanoyl-L-homoserine lactone],Pf_72h_%Growth_Rep1,[1]; [4],85.38%
same,Pf_72h_%Growth_Rep2,[1]; [5],85.76%
same,Pf_120h_%Growth_Rep1,[2]; [6],108.94%
same,Pf_120h_%Growth_Rep2,[2]; [7],93.89%
same,Tg_72h_%Growth_Rep1,[3]; [8],132.23%
same,Tg_72h_%Growth_Rep2,[3]; [9],94.38%
CC1CCCCCC(=O)c2c(O)cc(O)cc2CC(=O)O1 (stereo not drawn) [Curvularin],activity at 2 µg/mL,"[1]; P. falciparum, 72 h, screen at 2 μg/mL, replicate 1, read-out: Pf_72h_%Growth_Rep1",94%
same,activity at 2 µg/mL,"[1]; P. falciparum, 72 h, screen at 2 μg/mL, replicate 2, read-out: Pf_72h_%Growth_Rep2",47.8%
same,activity at 2 µg/mL,"[2]; P. falciparum, 120 h, screen at 2 μg/mL, replicate 1, read-out: Pf_120h_%Growth_Rep1",93.3%
same,activity at 2 µg/mL,"[2]; P. falciparum, 120 h, screen at 2 μg/mL, replicate 2, read-out: Pf_120h_%Growth_Rep2",122%
same,percent parasite growth at 2 µg/mL,"[3]; T. gondii, screen at 2 μg/mL, replicate 1, read-out: Tg_72h_%Growth_Rep1",143%
same,percent parasite growth at 2 µg/mL,"[3]; T. gondii, screen at 2 μg/mL, replicate 2, read-out: Tg_72h_%Growth_Rep2",80.4%
CS[C@H]1SC[C@H]2C(=O)N(C)[C@@H](C(C)C)C(=O)OC[C@@H](NC(=O)c3cnc4ccccc4n3)C(=O)N[C@@H](C)C(=O)N(C)[C@@H]1C(=O)N(C)[C@@H](C(C)C)C(=O)OC[C@@H](NC(=O)c1cnc3ccccc3n1)C(=O)N[C@@H](C)C(=O)N2C [Quinomycin A],Pf_72h_%Growth_Rep1,"[1]; P. falciparum, 72 h, parasite screen 2 μg/mL, % growth, replicate 1",8.36%
same,Pf_72h_%Growth_Rep2,"[1]; P. falciparum, 72 h, parasite screen 2 μg/mL, % growth, replicate 2",-0.61%
same,Pf_120h_%Growth_Rep1,"[2]; P. falciparum, 120 h, parasite screen 2 μg/mL, % growth, replicate 1",15.40%
same,Pf_120h_%Growth_Rep2,"[2]; P. falciparum, 120 h, parasite screen 2 μg/mL, % growth, replicate 2",-11.60%
same,Tg_72h_%Growth_Rep1,"[3]; T. gondii, parasite screen 2 μg/mL, % growth, replicate 1",-0.75%
same,Tg_72h_%Growth_Rep2,"[3]; T. gondii, parasite screen 2 μg/mL, % growth, replicate 2",-0.09%
Cc1cc(O)c2c(c1)O[C@@]1(C)CC[C@H]3C(C)(C)CCC[C@]34CO[C@@H]2[C@H]41 [Siccanin],activity at 2 µg/mL,"[1]; P. falciparum, 72 h, parasite screen 2 μg/mL, % growth, replicate 1, read-out: Pf_72h_%Growth_Rep1",76%
same,activity at 2 µg/mL,"[1]; P. falciparum, 72 h, parasite screen 2 μg/mL, % growth, replicate 2, read-out: Pf_72h_%Growth_Rep2",49.5%
same,activity at 2 µg/mL,"[2]; P. falciparum, 120 h, parasite screen 2 μg/mL, % growth, replicate 1, read-out: Pf_120h_%Growth_Rep1",73%
same,activity at 2 µg/mL,"[2]; P. falciparum, 120 h, parasite screen 2 μg/mL, % growth, replicate 2, read-out: Pf_120h_%Growth_Rep2",114%
same,percent parasite growth at 2 µg/mL,"[3]; T. gondii, parasite screen 2 μg/mL, % growth, replicate 1, read-out: Tg_72h_%Growth_Rep1",99.3%
same,percent parasite growth at 2 µg/mL,"[3]; T. gondii, parasite screen 2 μg/mL, % growth, replicate 2, read-out: Tg_72h_%Growth_Rep2",83.6%
Cc1cc(O)cc(=O)o1 [BIA-H1736],Pf_72h_%Growth_Rep1,"[1]; P. falciparum 3D7, 72 h, library screen at 2 μg/mL, % growth, replicate 1",86.06%
same,Pf_72h_%Growth_Rep2,"[1]; P. falciparum 3D7, 72 h, library screen at 2 μg/mL, % growth, replicate 2",85.31%
same,Pf_120h_%Growth_Rep1,"[2]; P. falciparum 3D7, 120 h, library screen at 2 μg/mL, % growth, replicate 1",102.52%
same,Pf_120h_%Growth_Rep2,"[2]; P. falciparum 3D7, 120 h, library screen at 2 μg/mL, % growth, replicate 2",94.50%
same,Tg_72h_%Growth_Rep1,"[3]; T. gondii RH, library screen at 2 μg/mL, % growth, replicate 1",113.92%
same,Tg_72h_%Growth_Rep2,"[3]; T. gondii RH, library screen at 2 μg/mL, % growth, replicate 2",93.67%
